Experimental findings from patent publication US4581451A, “Preparation of di- and tri-substituted xanthine compounds” (priority 1980, dated 1986) are described below.

Each structure is given as a SMILES string. Like-named read-outs stand apart in the source and are kept apart here.

A short description of data set [1]: behavioural study in rats: anxiety induced by a new environment (rearings and movements). Type of data set: in vivo, male Sprague-Dawley rats. Particulars: for ED50: Rattus norvegicus, 0.5 h. The text has this:
The xanthines obtained in accordance with the preceding Examples were the subject of a behavioural study in rats as a function of the anxiety induced by a new environment. In rats, anxiety is manifested by rearing the animal on its two hind paws, whilst locomotive activity is expressed by their movements.
A state of anxiety is induced by confronting "naive" male Sprague-Dawley (Iffa-Credo, France) rats weighing from 260 to 300 g with a new environment in the form of cages of Macrolon (30×25 cm) which are situated in a sound-proofed air-conditioned room (22° C./50% relative humidity).
The number of rearings and movements is automatically determined by means of infrared photoelectric cells which only emit electrical pulses for the active movements of the animal and not for its static movements, such as those of its head and tail, for reasons of reproducibility. These photoelectric cells scan the cages at two different levels so as to distinguish the standing-up movements from the other movements. The number of rearings and movements is counted by the two rows of photoelectric cells, memorised and read out using a printer in accordance with a pre-established program.
The tested compound in solution in the form of its sodium salt is orally administered by oesophagus probe (the reference administration being formed by 6 ml/kg of distilled water) 30 minutes before the animals are placed in the cages. The number of rearings and movements is determined during the 15 minutes after they have been put into the cages in relation to the effect generated by the reference administration.
The ED 50 dose (expressed in mg/kg), i.e. the quantity of substance required to bring about a 50% variation in the motive activity in relation to the reference administration, is determined from the development of the effects of the tested substances on the number of movements and rearings as a function of the progressive doses administered expressed as a percentage of the movements and rearings counted for the reference administration.
The gradients of the regression curves corresponding to the movements and to the rearings are compared by recording the value of the gradient of the movement curve on the abscissa (d) and the value of the gradient of the rearing curve on the ordinant (r) of a system of rectungular axes.
The ratio of the gradient of the movements to that of the rearings is also determined, enabling the specificity of effect of a given substance on the anxiety state to be assessed.
The effect of a substance is determined by its position relative to the curve d=r of gradient=1. The substances situated on this curve have a similar effect on the rearings and movements, being sedatives with a non-specific effect (S.N.). For these compounds, the ED 50 value quoted corresponds to the mean taken from the two regression curves.
These compounds are sedatives of anxiolytic character (S.A.). In this case, the ED 50 value is calculated from the regression curve of the rearings.

A short description of data set [2]: base screening: diuretic in male rats. It counts as in vivo. Particulars: Rattus norvegicus, read-out: minimal effective dose producing a significant response, diuretic (c). The text has this: (c) diuretic in male rats, as determined in accordance with W. L. Lipschitz, Z Hadidian and A. Kerpcsar, JPET, Vol. 79, pages 97-110, 1943
Data set [3] can be described thus: base screening: anti-allergic in male and female rats. Type of data set: in vivo. Particulars: for minimal effective dose: Rattus norvegicus, read-out: minimal effective dose producing a significant response, anti-allergic (d). An excerpt:
(d) anti-allergic in male and female rats, as determined in accordance with J. Goose and A. M. J. N. Blair, Immunol., Vol. 16, pages 749-760, 1969

Data set [4] in a line: base screening: bronchodilatory in vitro. The text has this:
(e) bronchodilatory in vitro as determined in accordance with F. P. Luduena et al., Arch. int. Pharmacodyn, Vol. 111, pages 392-400, 1957

A short description of data set [5]: base screening: anti-histamine in vitro. An excerpt: (f) anti-histamine in vitro as determined in accordance with R. Magnus, Arch f.d., ges. physiol., Vol. 102, pages 123-151, 1904.
A short description of data set [6]: catalepsy induced by haloperidol in rats. Type of data set: in vivo. Particulars: p.o. An excerpt: (§1) The compounds of Examples 1, 4, 11 and 12 were subjected to behavioural tests in accordance with "predictability and specificity of behaviour screening tests for neuroleptics", P. Worms and K. G. Lloyd, […], Vol. 5, pages 445-450, 1979, comprising: […]

The nature of data set [7]: analgesia induced by pentobarbital in mice. Particulars: p.o. Type of data set: in vivo.
From the text: as §1

A short description of data set [8]: climbing behaviour induced by apomorphine in mice. It counts as in vivo. To be noted: p.o.
From the text: as §1

Data set [9] in a line: stereotype behaviour induced by apomorphine in rats. Type of data set: in vivo. Particulars: p.o.
From the text: as §1

Data set [10] is described as follows: rectal temperature in mice. Particulars: p.o. It counts as in vivo.
From the text: as §1

The nature of data set [11]: hypomotility induced by amphetamine in rats. Type of data set: in vivo. Particulars: p.o.
From the text: as §1

Data set [12] in a line: in vivo. Particulars: rat, po, solution in DMSO. The text has this:
(b) Determination of the acute toxicity LD 50 in male and female rats in solution is DMSO (reference DMSO alone) in accordance with C.

A short description of data set [13]: in vivo. Particulars: mouse, po, solution in DMSO.
The mark [14] stands for this setting: oral, sodium salt in solution, 30 min before test, 15 min count, S.N.: mean of two regression curves, S.A.: from rearings curve, read-out: ED 50.
The mark [15] stands for this setting: female, read-out: LD 50, rats female.
[16] abbreviates: male, read-out: LD 50, rats male.

Turning to `C=CCn1c(=O)c2[nH]c(C)nc2n(CCCC)c1=O` [Example 1, 1-allyl-3-butyl-8-methyl xanthine], the ED50 in [1] (po) was 0.14 mg/kg. Moreover, the minimal effective dose in data set [2] worked out at 5 mg/kg; in data set [3], 2.5 mg/kg. In addition, the “minimal effective concentration producing a significant response, bronchodilatory (e)” value in data set [4] worked out at 100 µg/mL. Besides, in [5], the “minimal effective concentration producing a significant response, anti-histamine (f)” value was 100 µg/mL. In [6], the “catalepsy induced by haloperidol” value was “potentialisation at 1 mg/kg p.o”. Also, in [7], the “analgesia induced by pentobarbital” value is listed as “potentialisation at 0.5 mg/kg p.o”. Further, the “climbing behaviour induced by apomorphine” value (“climbing behaviour induced” for short) in [8] was “inhibition at 1 mg/kg p.o”. Besides, the “stereotype behaviour induced by apomorphine” value (“stereotype behaviour induced” for short) in data set [9] is on record as “no antagonism up to 8 mg/kg p.o”. In addition, in [10], the rectal temperature result is listed as “hypothermal effect at 2 mg/kg p.o”. Besides, in data set [11], the “hypomotility induced by amphetamine” value is given as “antagonism at 0.5 mg/kg p.o”.

As for `C=CCn1c(=O)c2[nH]cnc2n(CCCC)c1=O` [Example 2, 1-allyl-3-butyl xanthine], the ED50 in data set [1] (setting [14]) was determined as 1.6 mg/kg. For the same compound, the LD50 in “in vivo [12]” (setting [15]) and in “in vivo [12]” (setting [16]) was more than 200 mg/kg in each case. The minimal effective dose in data set [2] and in [3] was 10 mg/kg throughout. Further, the “minimal effective concentration producing a significant response, bronchodilatory (e)” value in data set [4] was found to be 25 µg/mL. For the same compound, the “minimal effective concentration producing a significant response, anti-histamine (f)” value in data set [5] was determined as 100 µg/mL.

For the compound `C=CCn1c(=O)c2[nH]cnc2n(CC(C)C)c1=O` [Example 3, 1-allyl-3-isobutyl xanthine], the ED50 in [1] (setting [14]) was 0.98 mg/kg. Besides, in [2], the minimal effective dose turned out to be 5 mg/kg. The “minimal effective dose producing a significant response, anti-allergic (d)” value in data set [3] is recorded as “no effect”. In data set [4], the “minimal effective concentration producing a significant response, bronchodilatory (e)” value is listed as “no effect”. In data set [5], the “minimal effective concentration producing a significant response, anti-histamine (f)” value is 200 µg/mL.

As to `C=CCn1c(=O)c2[nH]c(C)nc2n(CC(C)C)c1=O` [Example 4, 1-allyl-3-isobutyl-8-methyl xanthine], the ED50 in data set [1] (setting [14]) was 0.25 mg/kg. In data set [1] (sedative/anxiolytic class), the Effect result is listed as “S.N”. In addition, the LD50 was 49 mg/kg in the data set “in vivo [13]” (female, read-out: LD 50, mice female); 79 mg/kg in the data set “in vivo [13]” (male, read-out: LD 50, mice male); 17 mg/kg in the data set “in vivo [12]” (setting [15]); 23 mg/kg in “in vivo [12]” (setting [16]). Moreover, the minimal effective dose in data set [2] is 20 mg/kg; in [3], 50 mg/kg. For the same compound, the “minimal effective concentration producing a significant response, bronchodilatory (e)” value in data set [4] is recorded as “no effect”. In addition, in data set [5], the “minimal effective concentration producing a significant response, anti-histamine (f)” value was “no effect”. Also, in data set [6], the “catalepsy induced by haloperidol” value is listed as “potentialisation at 1 mg/kg p.o”. The “analgesia induced by pentobarbital” value in [7] was “potentialisation at 0.5 mg/kg p.o”. For the same compound, the “climbing behaviour induced” value in data set [8] is “inhibition at 1 mg/kg p.o”. Moreover, the “stereotype behaviour induced” value in data set [9] was “no antagonism up to 8 mg/kg p.o”. The rectal temperature entry in data set [10] is reported as “hypothermal effect at 2 mg/kg p.o”. Besides, in data set [11], the “hypomotility induced by amphetamine” value was “antagonism at 0.5 mg/kg p.o”.

Regarding `C=CCn1c(=O)c2[nH]c(CC)nc2n(CCCC)c1=O` [Example 5, 1-allyl-3-butyl-8-ethyl xanthine], the ED50 in data set [1] (setting [14]) was found to be 6.24 mg/kg. The minimal effective dose in data set [2] is 2.5 mg/kg. The “minimal effective dose producing a significant response, anti-allergic (d)” value in data set [3] is on record as “no effect”. For the same compound, in data set [4], the “minimal effective concentration producing a significant response, bronchodilatory (e)” value came to 5 µg/mL. Besides, the “minimal effective concentration producing a significant response, anti-histamine (f)” value in data set [5] amounted to 100 µg/mL.

`C=CCn1c(=O)c2[nH]c(C)nc2n(CCC)c1=O` [Example 6, 1-allyl-3-propyl-8-methyl xanthine]: in [1] (setting [14]), the ED50 was 0.27 mg/kg.

`C=CCn1c(=O)c2[nH]c(C)nc2n(CCC(C)C)c1=O` [Example 7, 1-allyl-3-isopentyl-8-methyl xanthine]: the ED50 in data set [1] (setting [14]) came out at 1.03 mg/kg.

`CCCCn1c(=O)n(CC)c(=O)c2[nH]c(C)nc21` [Example 8, 1-ethyl-3-butyl-8-methyl xanthine]: the ED50 in [1] (setting [14]) is 1.02 mg/kg.

On to `CCCCn1c(=O)n(CC)c(=O)c2[nH]c(CC)nc21` [Example 9, 1,8-diethyl-3-butyl xanthine], for which the ED50 in data set [1] (setting [14]) is 2.38 mg/kg. Also, the minimal effective dose in data set [2] is 5 mg/kg. Further, the “minimal effective dose producing a significant response, anti-allergic (d)” value in data set [3] is on record as “no effect”. In [4], the “minimal effective concentration producing a significant response, bronchodilatory (e)” value was found to be 25 µg/mL. Also, the “minimal effective concentration producing a significant response, anti-histamine (f)” value in data set [5] is 50 µg/mL.

For `C=CCn1c(=O)n(CCCC)c(=O)c2[nH]c(C)nc21` [Example 10, 1-butyl-3-allyl-8-methyl xanthine], the ED50 in data set [1] (setting [14]) is 3.95 mg/kg.

As to `CCCn1c(=O)c2[nH]c(C)nc2n(CC(C)C)c1=O` [Example 12, 1-propyl-3-isobutyl-8-methyl xanthine], the ED50 in data set [1] (setting [14]) was 0.25 mg/kg. For the same compound, the LD50 in the data set “in vivo [12]” (setting [15]) came to 19 mg/kg; in “in vivo [12]” (setting [16]), 28 mg/kg. For the same compound, in data set [6], the “catalepsy induced by haloperidol” value is “potentialisation at 1 mg/kg p.o”. In addition, the “analgesia induced by pentobarbital” value in data set [7] is “potentialisation at 0.5 mg/kg p.o”. In addition, the “climbing behaviour induced” value in data set [8] is listed as “inhibition at 1 mg/kg p.o”. Further, in data set [9], the “stereotype behaviour induced” value is given as “no antagonism up to 8 mg/kg p.o”. Besides, the rectal temperature entry in data set [10] is reported as “hypothermal effect at 2 mg/kg p.o”. The “hypomotility induced by amphetamine” value in data set [11] is “antagonism at 0.5 mg/kg p.o”.

`CCCCn1c(=O)c2[nH]c(C)nc2n(CCC)c1=O` [Example 13, 1-butyl-3-propyl-8-methyl xanthine]: the ED50 in data set [1] (setting [14]) was found to be 1.05 mg/kg.

For the compound `CCCn1c(=O)c2[nH]c(C)nc2n(CCC)c1=O` [Example 14, 1,3-dipropyl-8-methyl xanthine], in [1] (setting [14]), the ED50 was found to be 0.37 mg/kg.

For the compound `Cc1nc2c([nH]1)c(=O)n(CC(C)C)c(=O)n2CC(C)C` [Example 15, 1,3-diisobutyl-8-methyl xanthine], the ED50 in data set [1] (setting [14]) was determined as 0.42 mg/kg.

Turning to `CCCCn1c(=O)n(C(C)C)c(=O)c2[nH]c(C)nc21` [Example 16, 1-isopropyl-3-butyl-8-methyl xanthine], the ED50 in data set [1] (setting [14]) turned out to be 1.76 mg/kg.

As to `CNC1=Nc2ccc(Cl)cc2C(c2ccccc2)=[N+]([O-])C1` [chlordiazepoxide, reference compound], the ED50 in data set [1] (po) is 12 mg/kg.

In turn, `CN(C)CCCN1c2ccccc2Sc2ccc(Cl)cc21` [chlorpromazine, reference compound] showed an ED50 in data set [1] (po) of 21 mg/kg.

As for `O=C(CCCN1CCC(O)(c2ccc(Cl)cc2)CC1)c1ccc(F)cc1` [haloperidol, reference compound], the ED50 in [1] (po) amounted to 1 mg/kg.

Consider `Cn1c(=O)c2[nH]cnc2n(C)c1=O` [theophylline, reference compound], for which, in [1] (conclusion from Table 3), the action profile entry was “psychostimulating” and the “effect on the anxiety state” value was “does not have any effect on the anxiety state”.
